Laboratory results reported in PubChem BioAssay (NCI).
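Method: 48-hour compound exposure of cells in 96-well plates, five concentrations, linear interpolation of endpoints. At the GI50, growth is halved. TGI denotes the concentration required for complete inhibition of growth.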

Tests used:
Test in all cases: NCI tumour cell line growth inhibition, 48 h
[1] = test system: UACC-62 melanoma
[2] = test system: CCRF-CEM leukemia
[3] = test system: SK-MEL-2 melanoma
[4] = test system: LOX IMVI melanoma
[5] = test system: SNB-19 CNS
[6] = test system: HCC-2998 colon
[7] = test system: SF-268 CNS
[8] = test system: HOP-92 NSCLC
[9] = test system: UACC-257 melanoma
[10] = test system: SNB-75 CNS

Row | SMILES | GI50 [1] [µM] | TGI [1] [µM] | GI50 [2] [µM] | TGI [2] [µM] | GI50 [3] [µM] | TGI [3] [µM] | GI50 [4] [µM] | TGI [4] [µM] | GI50 [5] [µM] | TGI [5] [µM] | GI50 [6] [µM] | TGI [6] [µM] | GI50 [7] [µM] | TGI [7] [µM] | GI50 [8] [µM] | TGI [8] [µM] | GI50 [9] [µM] | TGI [9] [µM] | GI50 [10] [µM] | TGI [10] [µM]
1 | CCOC(=O)N1CCN(/[N+]([O-])=N/Oc2ccc([N+](=O)[O-])cc2[N+](=O)[O-])CC1 | 2.65 | 12.8 | 0.158 | 12.2 | 7.08 | 25.9 | 0.258 | > 100 | 6.68 | 20.7 | 1.12 | 2.33 | 3.86 | 10.6 | 0.122 | 3.75 | 2.27 | 7 | 4.92 | 18.8
2 | OC(Cc1ccncc1)C(Cl)(Cl)Cl (centres undefined) | > 100 | > 100 | 32 | > 100 | > 100 | > 100 | > 100 | > 100 | > 100 | > 100 | – | – | > 100 | > 100 | 0.109 | > 100 | > 100 | > 100 | > 100 | > 100
3 | O=C(Nc1ccc([As](=O)(O)O)cc1)Nc1cccc(Cl)c1Cl | – | > 100 | – | – | – | > 100 | – | > 100 | – | > 100 | – | > 100 | – | > 100 | – | > 100 | – | > 100 | – | 65.4
4 | CCOC(=O)C12CCCC1(O)N(NC(=O)OC(C)(C)C)C(C)=C2C(=O)OC (centres undefined) | – | > 100 | – | > 100 | – | > 100 | – | > 100 | – | > 100 | – | > 100 | – | > 100 | – | > 100 | – | > 100 | – | –
5 | CCc1ccccc1NC(=O)C1=C(C)NC(C)=C(C(=O)Nc2ccccc2CC)C1c1ccccc1Cl | – | – | – | > 100 | – | > 100 | – | > 100 | – | > 100 | – | > 100 | – | > 100 | – | > 100 | – | > 100 | – | > 100
6 | O=C(O)CCCSC(=O)Nc1ccc(N=Nc2ccccc2)cc1 | – | > 100 | – | > 100 | – | > 100 | – | > 100 | – | > 100 | – | > 100 | – | > 100 | – | – | – | > 100 | – | –
7 | O.O.[NH-]C1(C(=O)O)CCCC1.[NH-]C1(C(=O)O)CCCC1.[Ni+2] | – | > 100 | – | > 100 | – | > 100 | – | > 100 | – | > 100 | – | – | – | > 100 | – | > 100 | – | > 100 | – | > 100
8 | C[C@]12C[C@H](CCCCCCNCCOC(=O)NCCCc3ccc(N(CCCl)CCCl)cc3)C3=C4CCC(=O)C=C4CCC3C1CC[C@@H]2O (some centres undefined) | – | – | 0.234 | 0.621 | – | – | 1.06 | 2.27 | – | – | 1.81 | 3.23 | 1.2 | 3.86 | – | – | 1.69 | 3.21 | 1.46 | 2.91
9 | CCOC(=O)/C(C=Nc1ccc(-c2nc3ccccc3[nH]2)cc1)=C(/C)O | 8.59 | 17.6 | – | – | 9.14 | 22.6 | 9.13 | 16.5 | 32.7 | > 50 | – | – | 11.7 | 34.5 | 19.4 | > 50 | 11.5 | 28.3 | – | –
10 | CCOC(=O)c1c(C)nc2c(c1N)CC(=O)N2Cc1ccc(OC)cc1 | 34.1 | > 100 | > 100 | > 100 | 36.1 | > 100 | > 100 | > 100 | 4.87 | > 100 | > 100 | > 100 | 4.29 | > 100 | 2.29 | 6.5 | – | – | 3.4 | 25.8
11 | O=C(NCCCCNc1cccccc1=O)OCc1ccccc1 | – | > 100 | – | > 100 | – | > 100 | – | > 100 | – | > 100 | – | > 100 | – | > 100 | – | – | – | > 100 | – | > 100
12 | COc1cc(C(O)CCBr)c(OC)cc1C (centres undefined) | – | 50.8 | – | > 52.7 | – | 68.2 | – | > 100 | – | > 100 | – | – | – | > 100 | – | > 100 | – | > 100 | – | > 100
13 | CN1CCC2(CC1)ONC1=NCCN12 | 31.2 | > 100 | 13.4 | 42.3 | > 100 | > 100 | – | – | > 100 | > 100 | 15.8 | 43.8 | 37.2 | > 100 | – | – | > 100 | > 100 | 66.8 | > 100
14 | C=C1C(=O)O[C@@H]2C[C@@H](C)[C@@H]3C=CC(=O)[C@@]3(C)[C@@H](O)[C@H]12 | – | 5.46 | – | 2.05 | – | 4.04 | – | 2.01 | – | 7.02 | – | 2.85 | – | 27.9 | – | – | – | 3.09 | – | 2.58
15 | O=c1[nH]nnc2c1ncn2C1OC(CO)C(O)C1O (centres undefined) | 4.95 | > 100 | 3.19 | > 100 | 0.707 | 12.2 | 2.23 | > 100 | > 100 | > 100 | 4.12 | > 100 | 19.1 | > 100 | – | – | 14.1 | > 100 | 0.99 | > 100
16 | O=C(c1ccccc1)c1ccccc1-c1ccccc1 | 4.43 | > 100 | – | – | 1.65 | 9.48 | 5.96 | > 100 | 5.45 | > 100 | 6.14 | 34.5 | 6.55 | > 100 | 3.36 | 47.1 | 14.5 | > 100 | 2.11 | 19.8
17 | CC(C)Cn1cnc2c(SCc3ccc(Cl)cc3Cl)nc(N)nc21 | – | > 100 | – | – | – | > 100 | – | 38.3 | – | > 100 | – | 37.4 | – | > 100 | – | 69.9 | – | 74.6 | – | > 100
